Key:
[1] = In house foaming test (comparative foam heights); type: physicochemical; details: 1 wt % surfactant solution; relative to 1 wt % Sodium Laureth Sulphate (3EO) = 100
Description: A 1 wt % surfactant solution was prepared. The foam heights were measured using an in house foaming test and the results were compared with those obtained using a composition comprising 1 wt % Sodium Laureth Sulphate (3EO) [SLES].

Zein = experiment: In house qualitative test based on the Zein test (irritancy/mildness); type: in vitro; details: 1% surfactant solution; qualitative comparison
Description: The mass of residual Zein is determined gravimetrically.

Q: For CCCCCCCCCCCC(=O)OC[C@H](O)[C@H]1OC(=O)C(O)=C1O [Compound 1, Ascorbyl Monolaurate], which “Relative foam height compared to SLES as %” value (from here on “Relative foam height … as %”) [1] is on record?
A: The value was 32%.

Q: Which irritancy/mildness (Zein) does the source give for “Ascorbyl Monolaurate Sulphate [Compound 2]” here?
A: The irritancy/mildness was “milder than many commercially available personal care surfactants including Sodium Laureth Sulfate (3EO) [SLES]”.

Q: What about the “Relative foam height … as %” value [1] of the same compound?
A: The value was 105%.

Q: For Sodium Laureth Sulphate (3EO), which “Relative foam height … as %” value [1] is on record?
A: Its value is 100%.
